Patent US12473250B2, “Molecular design of new antibiotics and antibiotic adjuvants against MCR strains” (priority 2019, dated 2025)
In brackets after ≈: the same amount, converted by molar mass. Like-named read-outs stand apart in the source and are kept apart here.

Columns and labels:
[1] = test system: MCR positive E. coli Clinical isolate 6083655967; assay type: in vivo; settings: neutropenic mice, i.p. 1 hour after infection, 6 hours after treatment; colistin 10 mg/kg, LC100 50 mg/kg, meropenem 100 mg/kg, combination 50 + 10 mg/kg
Protocol: FIG. 21 refers to graphs showing the efficacy testing of combination of LC100 and Colistin in neutropenic mouse thigh infection model infected with MCR positive E. coli Clinical isolate 6083655967. Starting inoculum was 1.87×10^6, N=3. “Combination” refers to Colistin 10 mg/kg+LC100 50 mg/kg. Each treatment was done intraperitoneally 1 hour after infection. 6 hours after treatment, mouse thigh tissues were homogenized for viable CFU.
The combination of colistin and antimicrobial peptide (LC100) was tested against E. coli clinical isolate MCR-positive strain 6083655967 in a neutropenic mouse thigh infection model. C57BL/6 mice were rendered neutropenic by cyclophosphamide, dosed at 150 and 100 mg kg-1 delivered on days −4 and −1 prior to infection. Bacteria were suspended in sterile saline and adjusted to a concentration of ˜1.876×10^6 CFU per infection site (100 micro-liters) and injected intramuscularly into the right thigh of five mice per treatment group. At 1 h post infection, mice received colistin ([…], i.p. n=5), LC100 (50 mg kg-1, i.p. n=5), untreated (n=5), or the combination (n=5). Mice were euthanized 6 h after infection; thigh tissue was aseptically collected, homogenized, serially diluted in PBS and plated onto solid TSA supplemented plates. Plates were incubated overnight at 37° C. and colonies were quantified to determine bacterial load.
To evaluate the in vivo efficacy of the combination of LC100 and colistin, a neutropenic mouse thigh infection model was used. 30 mice were classed into 5 groups: control, colistin at 10 mg/kg, LC100 at 50 mg/kg, meropenem at 100 mg/kg and combination of 50 mg/kg of LC100 and 10 mg/kg of colistin. Each treatment was administered intraperitoneally 1 hour after infection. The starting inoculum was 1.87×10^6, and 6 hours after treatment, mouse thigh tissues were homogenized for viable CFU. […] As neutropenic mice were used in the study, the 1.2 log reduction in bacterial burden is due to the combination of LC100 and colistin rather than the immune system of the mouse.

various pathogens = assay: organism not typed; assay type: cell-based
Protocol: The MICs of the individual drugs and LC compound in combinations were determined using the broth microdilution technique as recommended by the CLSI whereby the two anti-microbial agents were added in an equal amount. (e.g.: 50 μL of Colistin: 50 μL of LC compounds). Diluted media containing compounds and antibiotics will be serially diluted 2-fold, and LC compounds and antibiotics alone or in combination will be assayed at fixed synergy concentration. In all cases, the lowest concentration at which no visible growth occurred was be recorded to be the MIC value of individual and combined antibacterial agents. The results were obtained after 24 hours of incubation.
Using the combination of LC100 and colistin, the activity of a broad range of strains was further tested (Table 7).

[2] = test system: EC strains (CRE strains, colistin sensitive); assay: MIC of polymyxin B or colistin alone (Table 4); assay type: cell-based, E. coli; design: unit: μg/mL
Protocol: (§1) MIC experiments of the antimicrobial agents were determined by a modified broth microdilution method in accordance with the Clinical and Laboratory Standards Institute (CLSI) guidelines using 96 well culture plates. In brief, serial dilutions of all plates were prepared at different concentrations (μg). The inoculum suspension was prepared by adding isolated colonies from a 18-20 hours on TSA plate into phosphate buffer (0.31 mM, pH 7.2) or in water for injection (BBraun) and adjusting the suspension to a turbidity equivalent to 0.5 McFarland Standard. Each well contained a final bacterial concentration of approximately 5×10^5 colony forming units (CFU)/mL. The plate was covered and incubated at 35° C. for 24 hours. […] For the microdilution plates, turbidity in wells can be measured at OD600 using TECAN infinite M200Pro. MIC was determined as […] concentration that gives a 99 percent inhibition.

[3] = test system: PAE strains (CRE strains, colistin sensitive); assay: MIC of polymyxin B or colistin alone (Table 4); assay type: cell-based, P. aeruginosa; design: unit: μg/mL
Protocol: as §1

[4] = test system: ACBA multi-drug resistant strains; assay: MIC against multi-drug resistant strains (Table 5); assay type: cell-based, Acinetobacter baumannii; settings: Acinetobacter baumannii
Protocol: as §1

[5] = test system: ENT CLOACAE multi-drug resistant strains; assay: MIC against multi-drug resistant strains (Table 5); assay type: cell-based, E. cloacae; settings: Enterobacter cloacae, alone, read-out: MIC
Protocol: as §1

[6] = test system: KLPN multi-drug resistant strains; assay: MIC against multi-drug resistant strains (Table 5); assay type: cell-based, Klebsiella pneumonia; settings: Klebsiella pneumoniae, alone, read-out: MIC
Protocol: as §1

[7] = Escherichia coli, 6083655967 [MCR 1+, E. Coli]
[8] = Escherichia coli, 6093560257 [MCR 1+, E. Coli, NDM-1]
[9] = Escherichia coli, 6123520276 [MCR 1+, E. Coli]
[10] = Escherichia coli, 7023436560 [MCR 1+, E. Coli]
[11] = Escherichia coli, 7023444207 [MCR 1+, E. Coli]
[12] = Escherichia coli, 7023446108 [MCR 1−, E. Coli]
[13] = Escherichia coli, 7033607097 [MCR 1−, E. Coli]
[14] = Escherichia coli, 7103531927 [MCR 1+, E. Coli, KPC+]
[15] = Escherichia coli, 7113636863 [MCR 1+, E. Coli, NDM-1]
[16] = ATCC19606, strain ACBA ATCC 19606, alone, read-out: MIC
[17] = strain ACBA 1012, alone, read-out: MIC
[18] = strain ACBA 43357, alone, read-out: MIC

Row | Compound | MIC (various pathogens; ACBA 1010 (CI)) | MIC (various pathogens; [7]) | MIC (various pathogens; [8]) | MIC (various pathogens; [9]) | MIC (various pathogens; [10]) | MIC (various pathogens; [11]) | MIC (various pathogens; [12]) | MIC (various pathogens; [13]) | MIC (various pathogens; [14]) | MIC (various pathogens; [15]) | MIC (various pathogens; KLPN CRE 27025) | MIC (various pathogens; PAE DM 4150) | MIC (various pathogens; PAE DM 23155) | MIC (various pathogens; PAE DM 23257) | MIC (various pathogens; PAE DM 23376) | MIC (various pathogens; PAE DR 4877) | MIC (various pathogens; PAE DR 5790) | MIC (various pathogens; PAE DU 14476) | MIC [4, 16] | MIC [4, 17] | other results
1 | C[C@@H](O)[C@H]1C(=O)N2C(C(=O)O)=C(S[C@@H]3CN[C@H](C(=O)N(C)C)C3)[C@H](C)[C@H]12 [meropenem] | 1.56 mg/L | < 0.0975 mg/L | > 50 mg/L | < 0.0975 mg/L | < 0.0975 mg/L | < 0.0975 mg/L | < 0.0975 mg/L | < 0.0975 mg/L | 25 mg/L | 50 mg/L | > 50 mg/L | 1.56 mg/L | 0.195 mg/L | 0.78 mg/L | 0.39 mg/L | 1.56 mg/L | 6.25 mg/L | > 25 mg/L | – | – | reduction in bacterial burden [1]: 2 log; MIC (various pathogens; Escherichia coli, E. Coli CRE 11804): > 25 mg/L; MIC (various pathogens; Escherichia coli, E. Coli CRE 17232, ⅙ MHB): < 0.195 mg/L; MIC (various pathogens; Escherichia coli, E. Coli CRE 17528): 1.56 mg/L; MIC (various pathogens; KLPN CRE 7955): > 25 mg/L; MIC (various pathogens; KLPN CRE 16260): > 50 mg/L; MIC (various pathogens; KLPN CRE 55301): 0.39 mg/L
2 | Polymyxin B | – | – | – | – | – | – | – | – | – | – | – | – | – | – | – | – | – | – | – | – | MIC (antibiotic alone) ([2]; strain EC 17232): 0.195; MIC (antibiotic alone) ([2]; strain EC 17528): 0.78; MIC (antibiotic alone) ([2]; strain EC 19963): 1.56; MIC (antibiotic alone) ([3]; strain PAE 4877): 1.56; MIC (antibiotic alone) ([3]; strain PAE 5790): 1.56; MIC (antibiotic alone) ([3]; strain PAE 14476): 1.56
3 | NCC[C@H](O)C(=O)N[C@@H]1C[C@H](N)[C@@H](O[C@H]2O[C@H](CN)[C@@H](O)[C@H](O)[C@H]2O)[C@H](O)[C@H]1O[C@H]1O[C@H](CO)[C@@H](O)[C@H](N)[C@H]1O [Amikacin] | – | – | – | – | – | – | – | – | – | – | – | – | – | – | – | – | – | – | 12.5 mg/L (≈ 21.3 µM) | > 50 mg/L | MIC ([4]; strain ACBA 1010, alone, read-out: MIC): 1.56 mg/L (≈ 2.66 µM); MIC [4, 18]: 50 mg/L (≈ 85.4 µM); MIC ([5]; strain ENT CLOACAE 6780): > 50 mg/L; MIC ([5]; strain ENT CLOACAE 21489): 0.78 mg/L (≈ 1.33 µM); MIC ([5]; strain ENT CLOACAE 30063): 25 mg/L (≈ 42.7 µM); MIC ([5]; strain ENT CLOACAE 44095): 25 mg/L (≈ 42.7 µM); MIC ([6]; strain KLPN 8852): 12.5 mg/L (≈ 21.3 µM); MIC ([6]; strain KLPN 15588): > 50 mg/L; MIC ([6]; strain KLPN 24076): 3.12 mg/L (≈ 5.34 µM); MIC ([6]; strain KLPN 27025): 3.12 mg/L (≈ 5.34 µM)
4 | C[C@@H](O)[C@H]1C(=O)N2C(C(=O)O)=C(SCCN=CN)C[C@H]12 [Imipenem] | 25 mg/L | 0.0975 mg/L | 12.5 mg/L | < 0.0975 mg/L | < 0.0975 mg/L | 0.0975 mg/L | 0.0975 mg/L | 0.195 mg/L | 6.25 mg/L | 12.5 mg/L | > 50 mg/L | 3.12 mg/L | 0.78 mg/L | 0.78 mg/L | 1.56 mg/L | 1.56 mg/L | 6.25 mg/L | > 25 mg/L | 25 mg/L (≈ 83.5 µM) | > 50 mg/L | MIC [4]: 12.5 mg/L (≈ 41.8 µM); MIC [4, 18]: > 50 mg/L; MIC ([5]; strain ENT CLOACAE 6780): > 50 mg/L; MIC ([5]; strain ENT CLOACAE 21489): > 50 mg/L; MIC ([5]; strain ENT CLOACAE 30063): > 50 mg/L; MIC ([5]; strain ENT CLOACAE 44095): > 50 mg/L; MIC (various pathogens; ACBA ATCC 19606): 25 mg/L; MIC (various pathogens; ACBA DR 43357): > 50 mg/L; MIC (various pathogens; KLPN CRE 15588): > 50 mg/L; MIC ([6]; strain KLPN 8852): > 50 mg/L; MIC ([6]; strain KLPN 15588): > 50 mg/L; MIC ([6]; strain KLPN 24076): > 50 mg/L; MIC ([6]; strain KLPN 27025): > 50 mg/L
